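Grown in 96-well plates, cells were treated for 48 hours with each compound at five concentrations. Insufficient inhibition: endpoint recorded as highest concentration tested. Abbreviation: GI50, concentration required for 50% inhibition of growth.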 Activity calls are given as the source filed them. Rule as the data show it: active = GI50 up to about 1.1 µM and inactive = higher.
Legend:
Assay in all cases: NCI anticancer screen, dose series, 48 h
T47D = test system: T47D
HL-60 = test system: HL-60
RXF 393 = test system: RXF 393
SK-MEL-2 = test system: SK-MEL-2
SN12C = test system: SN12C
MDA-MB-231 = test system: MDA-MB-231
HOP-62 = test system: HOP-62
SF-539 = test system: SF-539
OVCAR-8 = test system: OVCAR-8
ACHN = test system: ACHN
OVCAR-3 = test system: OVCAR-3
COLO 205 = test system: COLO 205
NCI-H23 = test system: NCI-H23
U-251 = test system: U-251
NCI/ADR-RES = test system: NCI/ADR-RES
HCC 2998 = test system: HCC 2998
PC-3 = test system: PC-3
NCI-H226 = test system: NCI-H226
SNB-75 = test system: SNB-75

Measured: GI50

CCOc1ccc(/N=N/C2C(=O)N(C(=O)CC(=O)Nc3ccc(Cl)cc3)N=C2C)cc1 (centres undefined)
inactive: T47D > 100 µM | HL-60 > 100 µM | RXF 393 > 100 µM | SK-MEL-2 > 100 µM | SN12C > 100 µM | MDA-MB-231 > 100 µM | HOP-62 > 100 µM | SF-539 > 100 µM | OVCAR-8 64.1 µM | ACHN > 100 µM | OVCAR-3 > 100 µM | COLO 205 > 100 µM | NCI-H23 > 100 µM | U-251 > 100 µM | NCI/ADR-RES > 100 µM | HCC 2998 > 100 µM | PC-3 > 100 µM | NCI-H226 > 100 µM | SNB-75 18.4 µM

CC(C)(C)c1cc(-c2cc(C(C)(C)C)n(-c3ccccc3)n2)nn1-c1ccccc1
inactive: T47D 59.2 µM | HL-60 > 100 µM | RXF 393 > 100 µM | SK-MEL-2 > 100 µM | SN12C > 100 µM | MDA-MB-231 > 100 µM | HOP-62 > 100 µM | SF-539 > 100 µM | OVCAR-8 > 100 µM | ACHN 23.2 µM | OVCAR-3 > 100 µM | COLO 205 48.6 µM | NCI-H23 > 100 µM | U-251 > 100 µM | NCI/ADR-RES > 100 µM | HCC 2998 31.3 µM | PC-3 65.6 µM | NCI-H226 > 100 µM | SNB-75 > 100 µM

CC(C)(C)c1cc(OCc2nnc(S)n2N)c(Cl)cc1OCc1nnc(S)n1N
inactive: T47D 30.6 µM | HL-60 4.19 µM | RXF 393 26.2 µM | SK-MEL-2 18.4 µM | SN12C 28.4 µM | MDA-MB-231 27.5 µM | HOP-62 59 µM | SF-539 48.3 µM | OVCAR-8 50.5 µM | ACHN 63.7 µM | OVCAR-3 32.4 µM | COLO 205 42.2 µM | NCI-H23 42.8 µM | U-251 29.7 µM | NCI/ADR-RES > 100 µM | HCC 2998 31.1 µM | PC-3 28.2 µM | NCI-H226 > 100 µM | SNB-75 44.1 µM

Cc1cn(CC2(CO)CCC2)c(=O)[nH]c1=O
inactive: T47D > 100 µM | HL-60 > 100 µM | RXF 393 > 100 µM | SK-MEL-2 > 100 µM | SN12C > 100 µM | MDA-MB-231 > 100 µM | HOP-62 > 100 µM | SF-539 > 100 µM | OVCAR-8 > 100 µM | ACHN > 100 µM | OVCAR-3 > 100 µM | COLO 205 > 100 µM | NCI-H23 > 100 µM | U-251 > 100 µM | NCI/ADR-RES > 100 µM | HCC 2998 > 100 µM | PC-3 > 100 µM | NCI-H226 > 100 µM | SNB-75 > 100 µM

O=C1OC2c3ccccc3C(=O)C2(c2ccccc2)N1c1ccccc1 (centres undefined)
inactive: T47D 174 µM | HL-60 29.9 µM | RXF 393 > 200 µM | SK-MEL-2 > 200 µM | SN12C > 200 µM | MDA-MB-231 > 200 µM | HOP-62 > 200 µM | SF-539 > 200 µM | OVCAR-8 > 200 µM | ACHN > 200 µM | OVCAR-3 > 200 µM | COLO 205 86.1 µM | NCI-H23 > 200 µM | U-251 > 200 µM | NCI/ADR-RES > 200 µM | HCC 2998 > 200 µM | PC-3 183 µM | NCI-H226 > 200 µM | SNB-75 45.4 µM

CC(=O)OC1(C)CC(C)C(=O)C(C(O)CC2CC(=O)NC(=O)C2)C1 (centres undefined)
active: T47D 0.0179 µM | HL-60 0.00955 µM | RXF 393 0.01 µM | SK-MEL-2 0.00752 µM | SN12C 0.00822 µM | MDA-MB-231 0.0137 µM | HOP-62 0.0193 µM | SF-539 0.0145 µM | OVCAR-8 0.0122 µM | ACHN 0.00743 µM | OVCAR-3 0.0236 µM | COLO 205 0.0108 µM | NCI-H23 0.00807 µM | U-251 0.00697 µM | NCI/ADR-RES 0.0386 µM | HCC 2998 0.01 µM | PC-3 0.0199 µM | NCI-H226 0.0448 µM | SNB-75 0.504 µM

Source: ChEMBL document CHEMBL1201862, “PubChem BioAssay data set” (2004)
